Measurements reported in US8952024B2, “Herbicidal pyrimidone derivatives” (E I du Pont de Nemours and Company, priority 2009, dated 2015).

Experiments:
Experiment in all cases: Test B pre-/postemergence plant response
Type in all cases: in vivo
[1] = system: bermudagrass (Cynodon dactylon); settings: for Bermudagrass plant response rating (0 to 100 scale): 0 is no effect, 13 to 15 days
Summary of the method: (§1)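 Visual ratings on a 0–100 scale (100 = complete control) were made versus untreated controls 13–15 days after treatment in a greenhouse. Compounds in surfactant-containing non-phytotoxic solvent were applied preemergence to seeds in loam–sand blend or postemergence to 1- to 4-leaf plants (2–18 cm).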

[2] = system: downy bromegrass (Bromus tectorum); settings: for Bromegrass, Downy plant response rating (0 to 100 scale): 0 is no effect, 13 to 15 days
Summary of the method: as §1

[3] = system: goosegrass (Eleusine indica); settings: for Goosegrass plant response rating (0 to 100 scale): 0 is no effect, 13 to 15 days
Summary of the method: as §1

[4] = system: Italian ryegrass (Lolium multiflorum); settings: for Ryegrass, Italian plant response rating (0 to 100 scale): 0 is no effect, 13 to 15 days
Summary of the method: as §1

[5] = system: green foxtail (Setaria viridis); settings: for Foxtail, Green plant response rating (0 to 100 scale): 0 is no effect, 13 to 15 days
Summary of the method: as §1

[6] = system: morningglory (Ipomoea coccinea); settings: for Morningglory plant response rating (0 to 100 scale): 0 is no effect, 13 to 15 days
Summary of the method: as §1

[7] = system: johnsongrass (Sorghum halepense); settings: for Johnsongrass plant response rating (0 to 100 scale): 0 is no effect, 13 to 15 days
Summary of the method: as §1

[8] = system: ragweed (common ragweed, Ambrosia elatior); settings: for Ragweed plant response rating (0 to 100 scale): 0 is no effect, 13 to 15 days
Summary of the method: as §1

[9] = system: woolly cupgrass (Eriochloa villosa); settings: for Cupgrass, Woolly plant response rating (0 to 100 scale): 0 is no effect, 13 to 15 days
Summary of the method: as §1

[10] = system: giant foxtail (Setaria faberii); settings: for Foxtail, Giant plant response rating (0 to 100 scale): 0 is no effect, 13 to 15 days
Summary of the method: as §1

[11] = system: yellow nutsedge (Cyperus esculentus); settings: for Nutsedge, Yellow plant response rating (0 to 100 scale): 0 is no effect, 13 to 15 days
Summary of the method: as §1

corn (Zea mays) = settings: for Corn plant response rating (0 to 100 scale): 62 g ai/ha, 0 is no effect, 13 to 15 days
Summary of the method: as §1

[12] = system: large crabgrass (Digitaria sanguinalis); settings: for Crabgrass, Large plant response rating (0 to 100 scale): 0 is no effect, 13 to 15 days
Summary of the method: as §1

[13] = 31 g ai/ha, postemergence, scale 0 to 100, 0 is no effect, 100 is complete control
[14] = 62 g ai/ha, postemergence, 100 is complete control
[15] = Postemergence, 125 g ai/ha, visual rating after 13 to 15 days, scale 0 (no effect) to 100 (complete control)
[16] = Postemergence, 250 g ai/ha, scale 0 to 100 (0 no effect, 100 complete control)
[17] = postemergence, 100 is complete control
[18] = Postemergence, 125 g ai/ha, scale 0 to 100 (0 no effect, 100 complete control)
[19] = Preemergence, 31 g ai/ha, scale 0 to 100 (0 no effect, 100 complete control)
[20] = Preemergence, 62 g ai/ha, scale 0 to 100 (0 no effect, 100 complete control)
[21] = Preemergence, 125 g ai/ha, scale 0 to 100, 0 no effect, 100 complete control
[22] = Preemergence, 250 g ai/ha, 0 to 100 scale

Cc1ccccc1-c1ncc(C(=O)C2=C(O)CCCC2=O)c(=O)n1-c1ccccc1 [Compound 82]
Plant response rating, Bermudagrass [1, 13]: 80
Bermudagrass plant response rating (0 to 100 scale) [1, 14]: 85
Plant response rating, Bermudagrass [1, 15]: 85
Plant response rating, Bermudagrass [1, 16]: 95
Plant response rating, Bromegrass, Downy [2, 13]: 0
Bromegrass, Downy plant response rating (0 to 100 scale) [2, 14]: 0
Plant response rating, Bromegrass, Downy [2, 15]: 5
Plant response rating, Bromegrass, Downy [2, 16]: 30
Plant response rating, Goosegrass [3, 13]: 75
Goosegrass plant response rating (0 to 100 scale) [3, 14]: 75
Plant response rating, Goosegrass [3, 15]: 80
Plant response rating, Goosegrass [3, 16]: 85
Plant response rating, Ryegrass, Italian [4, 13]: 0
Ryegrass, Italian plant response rating (0 to 100 scale) [4, 14]: 0
Plant response rating, Ryegrass, Italian [4, 15]: 5
Plant response rating, Ryegrass, Italian [4, 16]: 10
Plant response rating, Foxtail, Green [5, 13]: 60
Foxtail, Green plant response rating (0 to 100 scale) [5, 14]: 60
Plant response rating, Foxtail, Green [5, 15]: 85
Plant response rating, Foxtail, Green [5, 16]: 90
Plant response rating, Morningglory [6, 13]: 65
Morningglory plant response rating (0 to 100 scale) [6, 14]: 100
Plant response rating, Morningglory [6, 15]: 100
Plant response rating, Morningglory [6, 16]: 100
Plant response rating, Johnsongrass [7, 13]: 65
Johnsongrass plant response rating (0 to 100 scale) [7, 14]: 80
Plant response rating, Johnsongrass [7, 15]: 80
Plant response rating, Johnsongrass [7, 16]: 95
Plant response rating, Ragweed [8, 13]: 75
Ragweed plant response rating (0 to 100 scale) [8, 14]: 80
Plant response rating, Ragweed [8, 15]: 95
Plant response rating, Ragweed [8, 16]: 95
Plant response rating, Cupgrass, Woolly [9, 13]: 55
Cupgrass, Woolly plant response rating (0 to 100 scale) [9, 14]: 55
Plant response rating, Cupgrass, Woolly [9, 15]: 65
Plant response rating, Cupgrass, Woolly [9, 16]: 75
Plant response rating, Foxtail, Giant [10, 13]: 75
Foxtail, Giant plant response rating (0 to 100 scale) [10, 14]: 80
Plant response rating, Foxtail, Giant [10, 15]: 95
Plant response rating, Foxtail, Giant [10, 16]: 95
Plant response rating, Nutsedge, Yellow [11, 13]: 10
Nutsedge, Yellow plant response rating (0 to 100 scale) [11, 14]: 15
Plant response rating, Nutsedge, Yellow [11, 15]: 45
Plant response rating, Nutsedge, Yellow [11, 16]: 55
Plant response rating, Corn (corn (Zea mays); [13]): 0
Corn plant response rating (0 to 100 scale) (corn (Zea mays); [17]): 5
Plant response rating, Corn (corn (Zea mays); [15]): 5
Plant response rating, Corn (corn (Zea mays); [16]): 15
Plant response rating, Crabgrass, Large [12, 13]: 70
Crabgrass, Large plant response rating (0 to 100 scale) [12, 14]: 75
Plant response rating, Crabgrass, Large [12, 15]: 80
Plant response rating, Crabgrass, Large [12, 16]: 90

COCCCn1c(-c2cc(F)cc(F)c2)ncc(C(=O)C2=C(O)CCCC2=O)c1=O [Compound 120]
Plant response rating, Bermudagrass [1, 13]: 80
Bermudagrass plant response rating (0 to 100 scale) [1, 14]: 95
Plant response rating, Bermudagrass [1, 18]: 98
Plant response rating, Bermudagrass [1, 16]: 98
Plant response rating, Bermudagrass [1, 19]: 100
Plant response rating, Bermudagrass [1, 20]: 100
Plant response rating, Bermudagrass [1, 21]: 100
Bermudagrass plant response rating ([1]; Preemergence, 250 g ai/ha, 0 to 100 scale, 0 no effect, 100 complete control): 100
Plant response rating, Bromegrass, Downy [2, 13]: 20
Bromegrass, Downy plant response rating (0 to 100 scale) [2, 14]: 60
Plant response rating, Bromegrass, Downy [2, 18]: 60
Plant response rating, Bromegrass, Downy [2, 16]: 80
Plant response rating, Bromegrass, Downy [2, 19]: 10
Plant response rating, Bromegrass, Downy [2, 20]: 30
Plant response rating, Bromegrass, Downy [2, 21]: 30
Bromegrass, Downy plant response rating [2, 22]: 85
Plant response rating, Goosegrass [3, 13]: 75
Goosegrass plant response rating (0 to 100 scale) [3, 14]: 80
Plant response rating, Goosegrass [3, 18]: 85
Plant response rating, Goosegrass [3, 16]: 98
Plant response rating, Goosegrass [3, 19]: 100
Plant response rating, Goosegrass [3, 20]: 100
Plant response rating, Goosegrass [3, 21]: 100
Goosegrass plant response rating [3, 22]: 100
Ryegrass, Italian plant response rating (0 to 100 scale) [4, 14]: 40
Plant response rating, Ryegrass, Italian [4, 18]: 60
Plant response rating, Ryegrass, Italian [4, 16]: 80
Plant response rating, Ryegrass, Italian [4, 19]: 100
Plant response rating, Ryegrass, Italian [4, 20]: 100
Plant response rating, Ryegrass, Italian [4, 21]: 100
Ryegrass, Italian plant response rating [4, 22]: 100
Plant response rating, Foxtail, Green [5, 13]: 90
Foxtail, Green plant response rating (0 to 100 scale) [5, 14]: 95
Plant response rating, Foxtail, Green [5, 18]: 95
Plant response rating, Foxtail, Green [5, 16]: 100
Plant response rating, Foxtail, Green [5, 19]: 95
Plant response rating, Foxtail, Green [5, 20]: 98
Plant response rating, Foxtail, Green [5, 21]: 100
Foxtail, Green plant response rating [5, 22]: 100
Plant response rating, Morningglory [6, 13]: 15
Morningglory plant response rating (0 to 100 scale) [6, 14]: 50
Plant response rating, Morningglory [6, 18]: 80
Plant response rating, Morningglory [6, 16]: 90
Plant response rating, Morningglory [6, 19]: 0
Plant response rating, Morningglory [6, 20]: 90
Plant response rating, Morningglory [6, 21]: 90
Morningglory plant response rating [6, 22]: 100
Plant response rating, Johnsongrass [7, 13]: 15
Johnsongrass plant response rating (0 to 100 scale) [7, 14]: 25
Plant response rating, Johnsongrass [7, 18]: 75
Plant response rating, Johnsongrass [7, 16]: 80
Plant response rating, Johnsongrass [7, 19]: 35
Plant response rating, Johnsongrass [7, 20]: 70
Plant response rating, Johnsongrass [7, 21]: 80
Johnsongrass plant response rating [7, 22]: 90
Ragweed plant response rating (0 to 100 scale) [8, 14]: 75
Plant response rating, Ragweed [8, 18]: 75
Plant response rating, Ragweed [8, 16]: 80
Plant response rating, Ragweed [8, 19]: 80
Plant response rating, Ragweed [8, 20]: 80
Plant response rating, Ragweed [8, 21]: 95
Ragweed plant response rating [8, 22]: 95
Plant response rating, Cupgrass, Woolly [9, 13]: 70
Cupgrass, Woolly plant response rating (0 to 100 scale) [9, 14]: 75
Plant response rating, Cupgrass, Woolly [9, 18]: 100
Plant response rating, Cupgrass, Woolly [9, 16]: 100
Plant response rating, Cupgrass, Woolly [9, 19]: 50
Plant response rating, Cupgrass, Woolly [9, 20]: 70
Plant response rating, Cupgrass, Woolly [9, 21]: 75
Cupgrass, Woolly plant response rating [9, 22]: 90
Plant response rating, Foxtail, Giant [10, 13]: 75
Foxtail, Giant plant response rating (0 to 100 scale) [10, 14]: 80
Plant response rating, Foxtail, Giant [10, 18]: 85
Plant response rating, Foxtail, Giant [10, 16]: 98
Plant response rating, Foxtail, Giant [10, 19]: 75
Plant response rating, Foxtail, Giant [10, 20]: 98
Plant response rating, Foxtail, Giant [10, 21]: 98
Foxtail, Giant plant response rating [10, 22]: 100
Plant response rating, Nutsedge, Yellow [11, 13]: 5
Nutsedge, Yellow plant response rating (0 to 100 scale) [11, 14]: 35
Plant response rating, Nutsedge, Yellow [11, 18]: 65
Plant response rating, Nutsedge, Yellow [11, 16]: 75
Plant response rating, Nutsedge, Yellow [11, 19]: 70
Plant response rating, Nutsedge, Yellow [11, 20]: 90
Plant response rating, Nutsedge, Yellow [11, 21]: 98
Nutsedge, Yellow plant response rating [11, 22]: 98
Plant response rating, Corn (corn (Zea mays); [13]): 15
Corn plant response rating (0 to 100 scale) (corn (Zea mays); [17]): 20
Plant response rating, Corn (corn (Zea mays); [18]): 50
Plant response rating, Corn (corn (Zea mays); [16]): 75
Plant response rating, Corn (corn (Zea mays); [19]): 0
Plant response rating, Corn (corn (Zea mays); [21]): 25
Corn plant response rating (corn (Zea mays); [22]): 55
Plant response rating, Crabgrass, Large [12, 13]: 80
Crabgrass, Large plant response rating (0 to 100 scale) [12, 14]: 85
Plant response rating, Crabgrass, Large [12, 18]: 95
Plant response rating, Crabgrass, Large [12, 16]: 98
Plant response rating, Crabgrass, Large [12, 19]: 98
Plant response rating, Crabgrass, Large [12, 20]: 100
Plant response rating, Crabgrass, Large [12, 21]: 100
Crabgrass, Large plant response rating [12, 22]: 100
